Earlier results in patent publication US20180148781A1, “Antioxidant Compounds For Cleave Formulations That Support Long Reads In Sequencing-By-Synthesis” (QIAGEN Waltham, Inc., priority 2016, published 2018).

Conditions: pH 7.4

For `O=C1O[C@H]([C@@H](O)CO)C(O)=C1O` [Ascorbic Acid], the “fraction present in mono-anionic form as ascorbate” value is listed as 99.95%.
